Consider 17 compounds from patent US7759345B2, “Antitumoral derivatives of ET-743” (priority 2001, dated 2010).

The structures appear in SMILES notation. Where two headings read alike, the source gives them in different places.

Test [1] relates to P-388. Put plainly: Inhibition of cell growth by counting cells, P-388. It counts as cell-based, mouse. As to conditions: Mus musculus, P388, 72 h, read-out: IC50 (molar) P-388. A digest of the protocol: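 IC50 is the sample concentration halving growth, taken from dose-response curves of cell counts (Coulter counter, duplicate wells) relative to drug-free cultures. P-388 (DBA/2 mouse lymphoid neoplasm) cells plated at 1×10^4 per well in EMEM with 5% FCS plus test sample.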

The subject of test [2] is A-549. Put plainly: Inhibition of cell growth by counting cells, A-549. As to conditions: Homo sapiens, A549, 72 h, read-out: IC50 (molar) A-549. Format: cell-based, human. A digest of the protocol:
(§1)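 Counts are net cells per well, averaged from duplicate wells, obtained by Coulter counting after trypsinization following 72 h of exposure at 37 °C. Seeding was 1×10^4 cells per well in EMEM/5% FCS with varied sample concentrations, alongside untreated growth controls. IC50 values derive from dose-response curves of % growth.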

In test [3] the test system is DU-145. Nature of the test: Inhibition of cell growth by counting cells, DU-145. Format: cell-based, human. As to conditions: Homo sapiens, DU-145, 72 h, read-out: IC50 (molar) DU-145. Here is the method:
1°.—Inhibition of Cell Growth by Counting Cells.
This form of the assay employs 24 well multidishes of 16 mm diameter (Bergeron, 1984; Schroeder, 1981). The tumor cell lines employed are: P-388 (ATCC CCL 46), suspension culture of a lymphoid neoplasm from a DBA/2 mouse; A-549 (ATCC CCL 185), monolayer culture of a human lung carcinoma; HT-29 (ATCC HTB-38), monolayer culture of a human colon carcinoma; MEL-28 (ATCC HTB-72), monolayer culture of a human melanoma and DU-145 (ATCC HTB-81), monolayer culture of a human prostate carcinoma.
Cells were maintained, in logarithmic phase of growth in Eagle's Minimum Essential Medium, with Earle's Balanced Salts, with non-essential amino acids, with 2.0 mM L-Glutamine, without sodium bicarbonate (EMEM/neaa), supplemented with 10% Fetal Calf Serum (FCS), 10^−2 M. sodium bicarbonate and 0.1 U/l penicillin G+0.1 g/l streptomycin sulfate. For the experiments, cells are harvested from subconfluent cultures using trypsin and resuspended in fresh medium before plating.
A-549, HT-29, MEL-28 and DU-145 cells were seeded into 16 mm diameter wells at 1×10^4 cells per well in 1 ml aliquots of EMEM 5% FCS containing different concentrations of the sample to be tested. A separate set of cultures without drug was seeded as control of growth, to ensure that cells remained in exponential phase of growth. All determinations are carrying out in duplicate. After three days of incubation at 37° C., 5% CO2 in a 98% humid atmosphere cells were stained with 0.1% crystal violet. An approximately IC50 was determined by comparing the growth in wells with drug to the growth in wells control.
For quantifying the activity, after the incubation time, cells are trypsinized and counted in a Coulter Counter ZM. All counts (net cells per well), represent the average of duplicate wells. % G, percent of growth relative to cultures without drug. The results of these assays are used to generate dose-response curves from which more precise IC50 values are determined (sample concentration which produces 50% cell growth inhibition).
Obtained results may predict the usefulness of a certain drug as a potential cancer treatment. For this technique, compounds which show IC50 values smaller than 1 μg/ml are selected to continue with further studies. IC50's data allow to predict that not only could a drug be cystostatic, but also it could have a potential in terms of tumor reduction.

In test [4] the test system is HT-29. Nature of the test: Inhibition of cell growth by counting cells, HT-29. Format: cell-based, human. The settings on record: Homo sapiens, HT-29, 72 h, read-out: IC50 (molar) HT-29. A digest of the protocol:
as §1

Test [5] has as its system MEL-28. Nature of the test: Inhibition of cell growth by counting cells, MEL-28. It counts as cell-based, human. As to conditions: Homo sapiens, SK-MEL-28, 72 h, read-out: IC50 (molar) MEL-28. The method in brief:
as §1

For `C=CCOc1cc2c(cc1OC)[C@@]1(CS[C@@H]3c4c(OC(C)=O)c(C)c5c(c4[C@H](COC1=O)N1C3[C@H]3c4c(cc(C)c(OC)c4OCC=C)C[C@@H]([C@@H]1C#N)N3C)OCO5)NCC2` (stereo partly shown) [Compound 42], the IC50 in test [1] (three days of incubation), in test [2] (three days of incubation), in test [3], in test [4] (three days of incubation) and in test [5] (three days of incubation) was 11.8 nM throughout.
`COc1cc2c(cc1OCc1ccccc1)CCN[C@]21CS[C@@H]2c3c(OC(C)=O)c(C)c4c(c3[C@H](COC1=O)N1C2[C@H]2c3c(cc(C)c(OC)c3O)C[C@@H]([C@@H]1C#N)N2C)OCO4` (stereo partly shown) [Compound 43]: the IC50 in test [1], in test [2], in test [3], in test [4] and in test [5] was 1.16 nM in each case.
Take `COc1cc2c(cc1OCc1ccccc1)CCN[C@]21CS[C@@H]2c3c(OC(C)=O)c(C)c4c(c3[C@H](COC1=O)N1C2[C@H]2c3c(cc(C)c(OC)c3OCc3ccccc3)C[C@@H]([C@@H]1C#N)N2C)OCO4` (stereo partly shown) [Compound 44]: the IC50 in test [1], in test [2], in test [3], in test [4] and in test [5] was 105 nM in each case.
For `COc1cc2c(cc1O)CCN[C@]21CS[C@@H]2c3c(OC(C)=O)c(C)c4c(c3[C@H](COC1=O)N1C2[C@H]2c3c(cc(C)c(OC)c3OC(=O)OC(C)(C)C)C[C@@H]([C@@H]1C#N)N2C)OCO4` (stereo partly shown) [Compound 47], the IC50 in test [1] (three days of incubation), in test [2] (three days of incubation), in test [3] (three days of incubation), in test [4] (three days of incubation) and in test [5] (three days of incubation) was 1.15 nM each time.
As for `COc1cc2c(cc1OC(=O)/C=C/c1ccccc1)CCN[C@]21CS[C@@H]2c3c(OC(C)=O)c(C)c4c(c3[C@H](COC1=O)N1C2[C@H]2c3c(cc(C)c(OC)c3OC(=O)OC(C)(C)C)C[C@@H]([C@@H]1C#N)N2C)OCO4` (stereo partly shown) [Compound 49], the IC50 in test [1] (three days of incubation), in test [2] (three days of incubation), in test [3], in test [4] (three days of incubation) and in test [5] (three days of incubation) was 0.999 nM in each case.
`C=CCOc1cc2c(cc1OC)[C@@]1(CS[C@@H]3c4c(O)c(C)c5c(c4[C@H](COC1=O)N1C3[C@H]3c4c(cc(C)c(OC)c4OCC=C)C[C@@H]([C@@H]1C#N)N3C)OCO5)NCC2` (stereo partly shown) [Compound 50]: the IC50 in test [1] (three days of incubation), in test [2] (three days of incubation), in test [3] (three days of incubation), in test [4] (three days of incubation) and in test [5] (three days of incubation) was 124 nM each time.
On to `CCCC(=O)Oc1cc2c(cc1OC)[C@@]1(CS[C@@H]3c4c(OC(C)=O)c(C)c5c(c4[C@H](COC1=O)N1C3[C@H]3c4c(cc(C)c(OC)c4O)C[C@@H]([C@@H]1O)N3C)OCO5)NCC2` (stereo partly shown) [Compound 58], for which the IC50 in test [1] (three days of incubation), in test [2] (three days of incubation), in test [3] (three days of incubation), in test [4] (three days of incubation) and in test [5] (three days of incubation) was 0.12 nM each time.
Regarding `CCCCCCCCCCCCCCCC(=O)Oc1cc2c(cc1OC)[C@@]1(CS[C@@H]3c4c(OC(C)=O)c(C)c5c(c4[C@H](COC1=O)N1C3[C@H]3c4c(cc(C)c(OC)c4O)C[C@@H]([C@@H]1O)N3C)OCO5)NCC2` (stereo partly shown) [Compound 60], the IC50 in test [1] (three days of incubation) is 10 nM; in test [2] (three days of incubation), 5 nM; in test [3] (three days of incubation) it was 5 nM; in test [4] (three days of incubation), 5 nM; in test [5] (three days of incubation), 5 nM.
For `C=CCOC(=O)NC(CSCC1c2ccccc2-c2ccccc21)C(=O)Oc1cc2c(cc1OC)[C@@]1(CS[C@@H]3c4c(OC(C)=O)c(C)c5c(c4[C@H](COC1=O)N1C3[C@H]3c4c(cc(C)c(OC)c4O)C[C@@H]([C@@H]1O)N3C)OCO5)NCC2` (stereo partly shown) [Compound 62], the IC50 in test [1] (three days of incubation), in test [2] (three days of incubation), in test [3] (three days of incubation), in test [4] (three days of incubation) and in test [5] (three days of incubation) was 0.888 nM in each case.
As to `COc1cc2c(cc1OC(=O)OC(C)(C)C)CCN[C@]21CS[C@@H]2c3c(OC(C)=O)c(C)c4c(c3[C@H](COC1=O)N1C2[C@H]2c3c(cc(C)c(OC)c3O)C[C@@H]([C@@H]1O)N2C)OCO4` (stereo partly shown) [Compound 66], the IC50 in test [1] (three days of incubation), in test [2] (three days of incubation), in test [3] (three days of incubation), in test [4] (three days of incubation) and in test [5] (three days of incubation) was 0.116 nM in each case.
As for `CCCOc1cc2c(cc1OC)[C@@]1(CS[C@@H]3c4c(OC(C)=O)c(C)c5c(c4[C@H](COC1=O)N1C3[C@H]3c4c(cc(C)c(OC)c4O)C[C@@H]([C@@H]1O)N3C)OCO5)NCC2` (stereo partly shown) [Compound 69], the IC50 in test [1] (three days of incubation) is 0.125 nM; in test [2] (three days of incubation), 0.623 nM; in test [3] (three days of incubation), 0.623 nM; in test [4] (three days of incubation) it was 0.623 nM; in test [5] (three days of incubation) it was 0.623 nM.
For `COc1cc2c(cc1OCc1ccccc1)CCN[C@]21CS[C@@H]2c3c(OC(C)=O)c(C)c4c(c3[C@H](COC1=O)N1C2[C@H]2c3c(cc(C)c(OC)c3O)C[C@@H]([C@@H]1O)N2C)OCO4` (stereo partly shown) [Compound 71], the IC50 in test [1] (three days of incubation), in test [2] (three days of incubation), in test [3] (three days of incubation), in test [4] (three days of incubation) and in test [5] (three days of incubation) was 0.588 nM in each case.
As for `CCCCCCCCCCCCCCCC(=O)Oc1cc2c(cc1OC)[C@@]1(CS[C@@H]3c4c(OC(C)=O)c(C)c5c(c4[C@H](COC1=O)N1C3[C@H]3c4c(cc(C)c(OC)c4OC(=O)CCCCCCCCCCCCCCC)C[C@@H]([C@@H]1O)N3C)OCO5)NCC2` (stereo partly shown) [Compound 83], the IC50 in test [1] (three days of incubation), in test [2] (three days of incubation), in test [3] (three days of incubation), in test [4] (three days of incubation) and in test [5] (three days of incubation) was 80.8 nM in each case.
For the compound `CCOc1cc2c(cc1OC)[C@@]1(CS[C@@H]3c4c(OC(C)=O)c(C)c5c(c4[C@H](COC1=O)N1C3[C@H]3c4c(cc(C)c(OC)c4OCC)C[C@@H]([C@@H]1O)N3C)OCO5)NCC2` (stereo partly shown) [Compound 88], the IC50 in test [1] (three days of incubation), in test [2] (three days of incubation), in test [3] (three days of incubation), in test [4] (three days of incubation) and in test [5] (three days of incubation) was 12.2 nM throughout.
Consider `CCCOc1cc2c(cc1OC)[C@@]1(CS[C@@H]3c4c(OC(C)=O)c(C)c5c(c4[C@H](COC1=O)N1C3[C@H]3c4c(cc(C)c(OC)c4OCCC)C[C@@H]([C@@H]1O)N3C)OCO5)NCC2` (stereo partly shown) [Compound 89], for which the IC50 in test [1] (three days of incubation), in test [2] (three days of incubation), in test [3] (three days of incubation), in test [4] (three days of incubation) and in test [5] (three days of incubation) was 591 nM each time.
For the compound `C=CCOc1cc2c(cc1OC)[C@@]1(CS[C@@H]3c4c(OC(C)=O)c(C)c5c(c4[C@H](COC1=O)N1C3[C@H]3c4c(cc(C)c(OC)c4OCC=C)C[C@@H]([C@@H]1O)N3C)OCO5)NCC2` (stereo partly shown) [Compound 90], the IC50 in test [1] (three days of incubation), in test [2] (three days of incubation), in test [3] (three days of incubation), in test [4] (three days of incubation) and in test [5] (three days of incubation) was 11.9 nM throughout.
Take `COc1cc2c(cc1OCc1ccccc1)CCN[C@]21CS[C@@H]2c3c(OC(C)=O)c(C)c4c(c3[C@H](COC1=O)N1C2[C@H]2c3c(cc(C)c(OC)c3OCc3ccccc3)C[C@@H]([C@@H]1O)N2C)OCO4` (stereo partly shown) [Compound 91]: the IC50 in test [1] (three days of incubation), in test [2] (three days of incubation), in test [3] (three days of incubation), in test [4] (three days of incubation) and in test [5] (three days of incubation) was 106 nM in each case.

One may read the IC50 as the midpoint of a concentration-inhibition curve.
